In BindingDB's records for PubMed 36074125 (Purdue University, 2022) one finds IC50 data, which are given here for 2 compounds.

pIC50: −log10 of the molar value.

In the experiment the target is T1, N-terminal Xaa-Pro-Lys N-methyltransferase 1 (Homo sapiens, UniProt Q9BV86).
T1 sequence (Q9BV86 whole entry): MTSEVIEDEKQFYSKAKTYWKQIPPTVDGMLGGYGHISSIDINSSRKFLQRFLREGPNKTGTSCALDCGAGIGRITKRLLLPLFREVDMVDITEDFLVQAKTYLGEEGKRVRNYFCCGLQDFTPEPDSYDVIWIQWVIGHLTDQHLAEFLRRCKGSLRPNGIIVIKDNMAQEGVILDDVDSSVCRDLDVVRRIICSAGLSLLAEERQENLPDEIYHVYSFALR
Briefly: Inhibition of full length NTMT1 (1 to 222 residues) (unknown origin) expressed in Escherichia coli BL21 (DE3) using GPKRIA as substrate preincubated for 10 mins followed by substrate addition measured after 15 mins by microplate reader method.

The compound `CC(C)(NC(=O)O[C@@H]1CN2CCC1CC2)c1csc(-c2ccc(Cl)cc2)n1` gave a negative logarithm of the IC50 (pIC50) of 6.04.
Next, `CC(C)(NC(=O)O[C@@H]1CN2CCC1CC2)c1csc(-c2ccc(C(F)(F)F)cc2)n1`: 5.49.

Usually pIC50 stands for −log10 of the IC50, conventionally taken in molar units. Higher therefore signals a small IC50.
